Source: article PMC6611794, “Development of a high-throughput strategy for discovery of potent analogues of antibiotic lysocin E” (Nature Communications, 2019)
Like-named read-outs stand apart in the source and are kept apart here. Where a SMILES comes first, the peptide text is derived from it. Bridges are numbered along the chain shown (N, C = ends). [ ]: non-standard residue; d: D form. The star is where a group is joined. Hexanoyl(3R-OH,5-Me) = CC(C)C[C@@H](O)CC(=O)*; dNMeF = CN[C@H](Cc1ccccc1)C(=O)O; dOrn = NCCC[C@@H](N)C(=O)O

Legend:
[1] = Liposomal membrane disruption assay (carboxyfluorescein LUVs); type: biochemical
Experimental: Preparation of LUVs consisting of PC/PG. Carboxyfluorescein-encapsulated large unilamellar vesicles (LUVs) were prepared according to the thin-film hydration method, followed by extrusion through Nuclepore polycarbonate filters (GE Healthcare) mounted in the mini-extruder apparatus (Avanti Polar Lipids). A solution of egg yolk phosphatidylcholine (9.60 mg, 12.5 µmol) and egg yolk phosphatidylglycerol (9.78 mg, 12.5 µmol) in CHCl3 (0.505 mL) was concentrated, and dried under vacuum to form a lipid thin film. The thin film was hydrated and suspended in carboxyfluorescein-containing buffer solution [0.500 mL, 5 mM 4-(2-hydroxyethyl)-1-piperazineethanesulfonic acid (HEPES), 20 mM carboxyfluorescein, pH 7.5] by vortexing and sonication. After five -times freeze-thaw cycles, the lipid suspension was extruded 19 times through a polycarbonate filter with 0.40 µm of pore size in the diameter. The external carboxyfluorescein -containing buffer was replaced w ith a carboxyfluorescein -free buffer solution [20 mM HEPES, 1 mM ethylenediaminetetraacetic acid (EDTA), pH 7.5] through size exclusion chromatography using disposable PD-10 column (GE Healthcare). Concentration of egg yolk phosphatidylcholine was determined by using Phospholipid C-Test Wako (Fujifilm Wako Pure Chemical). The final concentration of egg yolk phosphatidylcholine was adjusted to 4.0 µM with the carboxyfluorescein-free buffer solution, and the solution was used for membrane disruption assay. […]
(§1) Membrane disruption assay. […]
(§2) to various concentrations as 5-fold serial dilutions. The solution of peptides (2 µL/well) and the carboxyfluorescein-encapsulated LUV suspension (200 µL/well) were mixed in black polystyrene flat-bottom 96-well plates. The final concentration of peptides ranged from 2970 nM to 0.950 nM. The plates were vortexed at room temperature for 30 min, and then fluorescence of carboxyfluorescein (Ex. 490 nm/Em. 517 nm) of each well was measured at room temperature on Gemini EM microplate reader. Trion X-100/H2O (5/95, 2 µL), MeOH/H2O (4/6, 2 µL), and the LUV suspension were mixed in each plate to determine 100% lysis. MeOH/H2O (4/6, 2 µL) and the LUV suspension were mixed in each plate to determine 0% lysis.
(§3) The membrane disruption activities of tested peptides (I) were normalized against 100% lysis by Triton X -100 […]
(§4) (Imax) and 0% lysis by MeOH/H2O (4/6) (I0) as following, where Ix is the fluorescence intensity (Supplementary Equation 2).
(§5) I = 100 × (Ix – I0) / (Imax – I0) (2)
(§6) The membrane-disrupting activities were evaluated as half-maximal response (EC50, nM) values by means of three replicates. Sigmoidal curve fittings were performed on R2 with drc package (Supplementary Figs S7–S9).3 Two-parameter logistic model was applied for the fitting.

[2] = Experimental: (§7) Preparation of LUVs consisting of PC/PG/MK-4 or PC/PG/UQ-10. To a solution of egg yolk phosphatidylcholine (9.48 mg, 12.4 µmol) and egg yolk phosphatidylglycerol (9.66 mg, 12.4 µmol) in CHCl3 (0.208 mL) was added a solution of MK-4 (2) or UQ-10 (3) (0.313 µmol) in CHCl3 (21.8 µL). The solution was concentrated, and dried under vacuum to for m a lipid thin film. The thin film was hydrated and suspended in carboxyfluorescein-containing buffer solution (0.500 mL, 5 mM HEPES, 20 mM carboxyfluorescein , pH 7.5) by vortexing and sonication. After five-times freeze-thaw cycles, the lipid suspension was extruded 19 times through a polycarbonate filter with 0.40 µm of pore siz e in the diameter.
(§8) The external carboxyfluorescein -containing buffer was replaced with a carboxyfluorescein -free buffer solution (20 mM HEPES, 1 mM EDTA, pH 7.5) through size exclusion chromatography using disposable PD -10 column. Concentration of egg yolk phosphatidylcholine was determined by using Phospholipid C -Test Wako.
(§9) The final concentration of egg yolk phosphatidylcholine was adjusted to 4.0 µM with the carboxyfluorescein -free buffer solution, and the solution was used for membrane disruption ass ay.
as §1, §2, §3, §4, §5, §6

[3] = Liposomal membrane disruption assay (carboxyfluorescein LUVs); type: biochemical; remark: listed apart in the source
Experimental: as §7, §8, §9
as §2, with “Membrane disruption assay. Peptides 1, A1–A22, B1–B5, and C1–C5 were diluted with MeOH/H2O (4/6) to various” for “to various”
as §3, §4, §5, §6

[4] = 30 min, room temperature, mean ± SD of three independent experiments, read-out: EC50 PC/PG
[5] = PC/PG LUVs, 1st experiment, read-out: EC50 PC/PG 1st
[6] = PC/PG LUVs, 2nd experiment, read-out: EC50 PC/PG 2nd
[7] = PC/PG LUVs, 3rd experiment, read-out: EC50 PC/PG 3rd
[8] = read-out: EC50 PC/PG/2 1st, PC/PG/2 LUVs, 1st experiment
[9] = read-out: EC50 PC/PG/2 2nd, PC/PG/2 LUVs, 2nd experiment
[10] = read-out: EC50 PC/PG/2 3rd, PC/PG/2 LUVs, 3rd experiment
[11] = read-out: EC50 PC/PG/2, 30 min, room temperature, mean ± SD of three independent experiments
[12] = 30 min, room temperature, mean ± SD of three independent experiments, read-out: EC50 PC/PG/3
[13] = PC/PG/3 LUVs, 1st experiment, read-out: EC50 PC/PG/3 1st
[14] = PC/PG/3 LUVs, 2nd experiment, read-out: EC50 PC/PG/3 2nd
[15] = PC/PG/3 LUVs, 3rd experiment, read-out: EC50 PC/PG/3 3rd

EC50 [1, 4] [nM]	EC50 [1, 5] [nM]	EC50 [1, 6] [nM]	EC50 [1, 7] [nM]	EC50 [2, 8] [nM]	EC50 [2, 9] [nM]	EC50 [2, 10] [nM]	EC50 [2, 11] [nM]	EC50 [3, 12] [nM]	EC50 [3, 13] [nM]	EC50 [3, 14] [nM]	EC50 [3, 15] [nM]	SMILES	selectivity index (EC50 against PC/PG/3 divided by EC50 against PC/PG/2) [2]
> 1500	> 1500	> 1500	> 1500	70.1	33.5	17.1	40.3 ± 27.1	832 ± 243	892	1040	565	CC[C@H](C)[C@@H]1NC(=O)[C@@H](Cc2c[nH]c3ccccc23)NC(=O)[C@@H](CCCN)NC(=O)[C@H](CCC(=O)O)NC(=O)[C@@H](CCCNC(=N)N)NC(=O)[C@H](CC(C)C)NC(=O)[C@@H](Cc2ccccc2)N(C)C(=O)CNC(=O)[C@H](CC(=O)O)NC(=O)[C@@H](CCCNC(=N)N)NC(=O)[C@@H](NC(=O)C[C@H](O)CC(C)C)[C@@H](C)OC(=O)[C@H]([C@@H](C)O)NC1=O [Peptide A16] ({Hexanoyl(3R-OH,5-Me)}-T[dR]DG[dNMeF]L[dR]E[dOrn][dW]IT; ester 1-C)	20.6
> 1500	> 1500	> 1500	> 1500	437	178	144	253 ± 160	> 1500	> 1500	> 1500	> 1500	CC[C@H](C)[C@@H]1NC(=O)[C@@H](Cc2c[nH]c3ccccc23)NC(=O)[C@@H](Cc2ccc(O)cc2)NC(=O)[C@H](CCC(=O)O)NC(=O)[C@@H](CCCNC(=N)N)NC(=O)[C@H](CC(C)C)NC(=O)[C@@H](Cc2ccccc2)N(C)C(=O)CNC(=O)[C@H](CC(=O)O)NC(=O)[C@@H](CCCNC(=N)N)NC(=O)[C@@H](NC(=O)C[C@H](O)CC(C)C)[C@@H](C)OC(=O)[C@H]([C@@H](C)O)NC1=O [Peptide A17] ({Hexanoyl(3R-OH,5-Me)}-T[dR]DG[dNMeF]L[dR]E[dY][dW]IT; ester 1-C)	–
